Source: the supplement of paper PMC10307832

What was measured:
Experiment in all cases: relative viability (nuclei count vs DMSO), 5 days (fraction); higher = more cells survive
[1] = compound: CC[C@H](Nc1ncnc2[nH]cnc12)c1nc2cccc(F)c2c(=O)n1-c1ccccc1 [Idelalisib] + CS(=O)(=O)N1CCN(Cc2cc3nc(-c4cccc5[nH]ncc45)nc(N4CCOCC4)c3s2)CC1 [Pictilisib] (partner 1 µM)
Summary of the method: (§1)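 Relative viability equals treated-well nuclei counts divided by vehicle-well nuclei counts. Counts came from 4× images of lung cancer cell lines grown in 1536-well plates for 5 days after pin-tool dosing on the day after seeding. Dosing used one drug alone or a fixed anchor-drug dose plus five library-drug doses (not always all listed) in √10 steps, and values are medians of duplicate plates.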

[2] = compound: CC[C@H](Nc1ncnc2[nH]cnc12)c1nc2cccc(F)c2c(=O)n1-c1ccccc1 [Idelalisib] + Nc1nc2[nH]cc(CCc3ccc(C(=O)N[C@@H](CCC(=O)O)C(=O)O)cc3)c2c(=O)[nH]1 [Pemetrexed] (partner 0.2 µM)
Summary of the method: as §1

[3] = compound: CC[C@H](Nc1ncnc2[nH]cnc12)c1nc2cccc(F)c2c(=O)n1-c1ccccc1 [Idelalisib] + CCNC(=O)c1noc(-c2cc(C(C)C)c(O)cc2O)c1-c1ccc(CN2CCOCC2)cc1 [Luminespib] (partner 0.01 µM)
Summary of the method: as §1

[4] = compound: CC[C@H](Nc1ncnc2[nH]cnc12)c1nc2cccc(F)c2c(=O)n1-c1ccccc1 [Idelalisib] + C[C@@H](Oc1cc(-c2cnn(C3CCNCC3)c2)cnc1N)c1c(Cl)ccc(F)c1Cl [Crizotinib] (partner 1 µM)
Summary of the method: as §1

Cell Line	relative viability ([1]; first compound 0.04 µM)	relative viability ([1]; first compound 0.1265 µM)	relative viability ([1]; first compound 0.4 µM)	relative viability ([1]; first compound 1.265 µM)	relative viability ([1]; first compound 4 µM)	relative viability ([2]; first compound 0.04 µM)	relative viability ([2]; first compound 0.1265 µM)	relative viability ([2]; first compound 0.4 µM)	relative viability ([2]; first compound 1.265 µM)	relative viability ([2]; first compound 4 µM)	relative viability ([3]; first compound 0.04 µM)	relative viability ([3]; first compound 0.1265 µM)	relative viability ([3]; first compound 0.4 µM)	relative viability ([3]; first compound 1.265 µM)	relative viability ([3]; first compound 4 µM)	relative viability ([4]; first compound 0.04 µM)	relative viability ([4]; first compound 0.1265 µM)	relative viability ([4]; first compound 0.4 µM)	relative viability ([4]; first compound 1.265 µM)	relative viability ([4]; first compound 4 µM)
NCI-H1975	0.324	0.295	0.249	0.316	0.271	0.292	0.334	0.29	0.276	0.303	0.216	0.157	0.16	0.213	0.207	1.08	0.944	0.817	1	0.81
LCLC-97TM1	0.236	0.182		0.231	0.152	0.182	0.182	0.15	0.155	0.199	0.82	0.738	0.708	0.818	0.607	0.338	0.212		0.422	0.295
NCI-H520	0.394	0.308	0.283	0.294	0.309	0.75	0.595	0.567	0.637	0.451	0.197	0.251	0.222	0.217	0.192	0.782	0.727	0.717	0.737	0.623
A-427	0.871	0.789	0.826	0.743	0.724	1.11	1	0.925	0.998	0.955	0.833	0.857	0.744	0.879	0.783	1.05	1.04	0.789	1.05	0.755
NCI-H460	0.363	0.318	0.315	0.36	0.359	0.0676	0.0589	0.0612	0.0657	0.0587	0.0345	0.032	0.0291	0.0326	0.0297	1.39	0.784	0.842	0.928	0.83
NCI-H23	0.689	0.489	0.381	0.451	0.462	0.64	0.619	0.422	0.53	0.509	0.219	0.221			0.196	0.723	0.56	0.277	0.533	0.387
LOU-NH91	0.532	0.478	0.509	0.504	0.575	0.369	0.414	0.392	0.408	0.408	0.281	0.321	0.327	0.33	0.315	0.791	0.711	0.677	0.68	0.727
NCI-H2009	0.85	0.767	0.798	0.84	0.768	0.99	0.996	1.03	1.09	0.991	1.01	1.04	1.02	1.11	1.03	1.02	1.04	1.03	0.991	1.01
NCI-H358	0.359	0.355	0.281	0.342	0.355	0.18	0.171	0.182	0.168	0.157	0.284	0.587	0.347	0.235	0.159	0.646	0.579	0.496	0.549	0.516
NCI-H2126	0.525	0.53	0.404	0.515	0.521	0.848	0.739	0.523	0.769	0.619	0.929	0.893	0.802	0.961	0.929	1.04	1	0.967	1.03	1.02
ChaGo-K-1	0.788	0.608	0.797	0.796	0.791	0.254	0.252	0.268	0.254	0.264	0.558	0.632	0.516	0.523	0.537	1.38	1.13	1.1	1.15	1.17
NCI-H1437	0.491	0.526	0.429	0.437	0.525	0.34	0.315	0.311	0.317	0.268	1.11	1.15	1.05	1.22	1.18	0.894	0.992	0.851	0.968	1.12
SK-LU-1	0.553	0.668	0.532	0.574	0.552	0.86	1.06	0.943	0.919	0.967	0.225	0.189	0.185	0.188	0.205	0.923	1.06	0.826	0.777	0.826
NCI-H838	0.505	0.469	0.346	0.531	0.469	0.253	0.238	0.225	0.237	0.257	0.235	0.346	0.273	0.339	0.243	0.791	0.906	0.724	0.8	0.695
NCI-H1755	0.444	0.466	0.358	0.41	0.372	0.431	0.415	0.38	0.434	0.438	0.331	0.339	0.449	0.699	0.293	0.812	0.878	0.832	0.745	0.671
NCI-H2228	0.383	0.367	0.355	0.396	0.421	0.369	0.323	0.407	0.312	0.325	0.0989	0.17	0.16	0.175	0.133	0.476	0.389	0.354	0.413	0.355
NCI-H1915	1.22	0.952	0.881	1.08	0.9	0.503	0.514	0.443	0.363	0.504	0.843	0.809	0.759	0.878	0.83	0.989	0.865	0.848	0.979	0.895
NCI-H2347	0.398	0.69	0.487	0.623	0.756	0.436	0.423	0.436	0.452	0.402	0.506	0.581	0.448	0.362	0.532	0.586	0.734	0.64	0.851	0.666
HARA	0.376	0.409	0.287	0.403	0.266	0.24	0.243		0.222	0.247	0.778	0.642	0.613	0.683	0.6	1.2	0.988	0.894	0.988	0.991
NCI-H2085	0.531	0.452	0.38	0.451	0.413	0.909	0.852	0.789	0.746	0.528	0.422	0.409	0.374	0.487	0.257	0.86	0.897	0.761	0.736	0.81
NCI-H650	0.849	0.858	0.907	0.819	0.783	0.983	0.995	0.923	0.77	0.92	0.894	0.703	0.648	0.869	0.765	0.947	0.673	0.652	0.664	0.669
NCI-H1993	0.804	0.8	0.807	0.896	0.803	0.592	0.67	0.548	0.614	0.59	0.778	0.889	0.779	1.06	0.822	0.873	0.893	0.879	0.834	0.73
EMC-BAC-2	0.563	0.569	0.475	0.59	0.492	0.484	0.44	0.477	0.435	0.43	1.34	1.24	1.03	1.25	1.13	0.788	0.796	0.676	0.742	0.732
NCI-H1563	0.656	0.663	0.583	0.658	0.678	0.845	0.73	0.714	0.757	0.732	0.562	0.543	0.557	0.519	0.5	0.774	0.87	0.793	0.828	0.728
NCI-H2087	0.989	0.743	0.853	0.907	0.904	0.742	0.671	0.657	0.637	0.695	0.198	0.213	0.16	0.165	0.115	0.894	0.911	0.901	1.1	0.93
NCI-H441	0.522	0.451		0.375	0.393	0.247	0.233		0.285	0.251	0.365	0.354	0.308	0.308	0.316	1.15	0.702		0.68	0.654
LXF-289	0.894	0.78	0.722	0.873	0.745	0.921	0.933	0.864	0.965	0.94	0.776	0.575	0.663	0.815	0.439	0.839	0.818	0.778	0.909	0.825
